Test system: comedones
Details: topical
Procedure: As an example, the comedolytic power of all-trans 2-retinoyl phosphatidinyl ethanol was tested following the protocol below:
The animal chosen for the test of comedolytic activity was the Hairless Rhino (hr rh) mouse of female sex, this choice being due to the fact that the skin of such an animal has a high density of comedones having a large diameter and narrow orifice. The use of comedolytic agents on the skin of the animal provokes the opening of the orifice of the comedones, the release of the horny material and the sebum that it contains.
Two groups comprising six mice each which were six-week's old at the start of the test and weighing on average 18 grams each were used. The first group were mice treated with distilled water (negative control group) and the second group were mice treated with the product under study. The treatment consisted of a topical use of the product studied on the interscapular area at a dose of 0.02 ml, 5 days out of 7, for 21 days. The animals were sacrificed at the end of three weeks of treatment, 24 hours after the last application.
Biopsies of the skin were then taken from the treated areas of the animals and from these biopsies, sections were prepared for a standard morphometric study by methods known to a person skilled in the art. The following parameters were measured: diameter of the opening of the comedon at the surface i.e d […]
comedonian profile i.e R = d/D
The ratio R=d/D allowed the action of the comedolytic agents to be quantified.
The percentage of inhibition of the comedones was calculated for the product under study relative to the negative control, i.e. the following ratio: [formula]

## all-trans 2-retinoyl phosphatidinyl ethanol
0.1% in solution in ethylenediglycol, interscapular, 0.02 ml, 5 days out of 7, for 21 days
  % inhibition of the comedones relative to the negative control: 14.1%
0.1% in solution in ethylenediglycol, interscapular, 0.02 ml, 5 days out of 7, for 21 days, negative control (distilled water) R = 0.78
  comedonian profile R = d/D (diameter of the opening of the comedon at the surface / diameter of the comedon): 0.89
At a dose of 0.1%, 21 days
  comedolytic activity (in words): good comedolytic activity
